The source of these data is patent US20240239752A1, “BICYCLIC HETEROAROMATIC INHIBITORS OF KLK5” (BioCryst Pharmaceuticals, Inc., priority 2021, published 2024).

The target of the assay is T1, recombinant human KLK5 (Homo sapiens, UniProt Q9Y337).
T1 construct: purchased Novoprotein or R&D Systems C415 or 1108-SE
T1 sequence (Q9Y337 23-293): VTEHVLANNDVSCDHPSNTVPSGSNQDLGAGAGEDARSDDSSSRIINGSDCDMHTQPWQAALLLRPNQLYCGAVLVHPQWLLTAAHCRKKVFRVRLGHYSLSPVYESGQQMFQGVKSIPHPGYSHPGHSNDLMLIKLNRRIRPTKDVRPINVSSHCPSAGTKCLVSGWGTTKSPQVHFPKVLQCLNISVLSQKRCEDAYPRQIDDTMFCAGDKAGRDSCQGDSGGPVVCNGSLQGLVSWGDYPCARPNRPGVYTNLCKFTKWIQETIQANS
Kind of assay: Kallikrein (KLK) 5 enzymatic assay (Boc-VPR-AMC fluorogenic substrate). Particulars: recombinant human KLK5 0.1 μg/well, Boc-VPR-AMC 100 μM, pH 7.5, room temperature, 1% DMSO; tested a minimum of three times. The assay is classed as biochemical. The procedure, abridged:
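Recombinant human KLK5 (0.1 μg/well) was preincubated with compound at room temperature in 0.1 M NaH2PO4, pH 7.5, 1% DMSO, then started with 100 μM Boc-VPR-AMC. The rate was followed at 380/460 nm, and IC50 came from percent inhibition relative to enzyme alone, with at least three runs.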
With `Cn1nc(COc2ccccc2CC(=O)O)c2cc(-c3ccc4ccnc(N)c4c3)cnc21` [Compound 196e, 2-(2-((5-(1-aminoisoquinolin-7-yl)-1-methyl-1H-pyrazolo[3,4-b]pyridin-3-yl)methoxy)phenyl)acetic acid], the IC50 was below 1 µM.

Take `Nc1nccc2ccc(-c3cnc4c(c3)c(COc3ccccc3CC(=O)O)nn4C3CCC3)cc12` [Compound 197j, 2-(2-((5-(1-aminoisoquinolin-7-yl)-1-cyclobutyl-1H-pyrazolo[3,4-b]pyridin-3-yl)methoxy)phenyl)acetic acid]: the IC50 is below 1 µM.

Regarding `Nc1nccc2c(-c3cnc4c(c3)c(COc3ccccc3CC(=O)O)nn4C3CCC3)cccc12` [Compound 198b, 2-(2-((5-(1-aminoisoquinolin-5-yl)-1-cyclobutyl-1H-pyrazolo[3,4-b]pyridin-3-yl)methoxy)phenyl)acetic acid], the IC50 was below 1 µM.

On to `Nc1nccc2ccc(-c3ccc4c(c3)C(Oc3ccccc3CC(=O)O)CC4)cc12` (stereo not drawn) [Compound 199d, 2-(2-((6-(1-aminoisoquinolin-7-yl)-2,3-dihydro-1H-inden-1-yl)oxy)phenyl)acetic acid], for which the IC50 is below 1 µM.

For `Nc1nccc2c(-c3ccc4c(c3)C(Oc3ccccc3CC(=O)O)CC4)cccc12` (stereo not drawn) [Compound 200b, 2-(2-((6-(1-aminoisoquinolin-5-yl)-2,3-dihydro-1H-inden-1-yl)oxy)phenyl)acetic acid], the IC50 was below 1 µM.

Regarding `Nc1nccc2ccc(-c3ccc4c(c3)c(COc3ccccc3CC(=O)O)nn4-c3ccccc3)cc12` [Compound 201c, 2-(2-((5-(1-aminoisoquinolin-7-yl)-1-phenyl-1H-indazol-3-yl)methoxy)phenyl)acetic acid], the IC50 is below 1 µM.

As for `Nc1nccc2c(-c3ccc4c(c3)c(COc3ccccc3CC(=O)O)nn4-c3ccccc3)cccc12` [Compound 202b, 2-(2-((5-(1-aminoisoquinolin-5-yl)-1-phenyl-1H-indazol-3-yl)methoxy)phenyl)acetic acid], the IC50 was below 1 µM.

As for `N=C(N)c1cccc(-c2ccc3c(c2)c(COc2ccccc2CC(=O)O)nn3-c2ccccc2)c1` [Compound 203c, 2-(2-((5-(3-carbamimidoylphenyl)-1-phenyl-1H-indazol-3-yl)methoxy)phenyl)acetic acid], the IC50 was below 1 µM.

On to `Nc1nccc2ccc(-c3ccc4c(c3)C(Oc3ccccc3CC(=O)O)CCC4)cc12` (stereo not drawn) [Compound 204d, 2-(2-((7-(1-aminoisoquinolin-7-yl)-1,2,3,4-tetrahydronaphthalen-1-yl)oxy)phenyl)acetic acid], for which the IC50 lay in the range of 1 to 10 µM.

With `Cc1cc(-c2ccc3ccnc(N)c3c2)cc2c1CCC2Oc1ccccc1CC(=O)O` (stereo not drawn) [Compound 205e, 2-(2-((6-(1-aminoisoquinolin-7-yl)-4-methyl-2,3-dihydro-1H-inden-1-yl)oxy)phenyl)acetic acid], the IC50 was in the range of 1 to 10 µM.

With `Cc1cc(-c2cccc3c(N)nccc23)cc2c1CCC2Oc1ccccc1CC(=O)O` (stereo not drawn) [Compound 206b, 2-(2-((6-(1-aminoisoquinolin-5-yl)-4-methyl-2,3-dihydro-1H-inden-1-yl)oxy)phenyl)acetic acid], the IC50 was below 1 µM.

With `Nc1nccc2ccc(-c3cc(F)c4c(c3)C(Oc3ccccc3CC(=O)O)CC4)cc12` (stereo not drawn) [Compound 207e, 2-(2-((6-(1-aminoisoquinolin-7-yl)-4-fluoro-2,3-dihydro-1H-inden-1-yl)oxy)phenyl)acetic acid], the IC50 is below 1 µM.

Turning to `Nc1nccc2c(-c3cc(F)c4c(c3)C(Oc3ccccc3CC(=O)O)CC4)cccc12` (stereo not drawn) [Compound 208b, 2-(2-((6-(1-aminoisoquinolin-5-yl)-4-fluoro-2,3-dihydro-1H-inden-1-yl)oxy)phenyl)acetic acid], the 50% inhibitory concentration (IC50) was below 1 µM.

Take `Nc1nccc2ccc(-c3ccc4c(c3)C(Oc3ccccc3CC(=O)O)c3ccccc3-4)cc12` (stereo not drawn) [Compound 209e, 2-(2-((2-(1-aminoisoquinolin-7-yl)-9H-fluoren-9-yl)oxy)phenyl)acetic acid]: the IC50 was below 1 µM.

`Nc1nccc2c(-c3ccc4c(c3)C(Oc3ccccc3CC(=O)O)c3ccccc3-4)cccc12` (stereo not drawn) [Compound 210b, 2-(2-((2-(1-aminoisoquinolin-5-yl)-9H-fluoren-9-yl)oxy)phenyl)acetic acid]: the IC50 was below 1 µM.

Regarding `COc1ccc(-c2ccc3c(c2)c(COc2ccccc2CC(=O)O)nn3C(C)C)cc1C(=N)N` [Compound 211e, 2-(2-((5-(3-carbamimidoyl-4-methoxyphenyl)-1-isopropyl-1H-indazol-3-yl)methoxy)phenyl)acetic acid], the IC50 fell in the range of 1 to 10 µM.

In the case of `CC(C)n1nc(COc2ccccc2CC(=O)O)c2cc(-c3cccc4c3OCC4N)ccc21` (stereo not drawn) [Compound 212c, 2-(2-((5-(3-amino-2,3-dihydrobenzofuran-7-yl)-1-isopropyl-1H-indazol-3-yl)methoxy)phenyl)acetic acid], the IC50 was in the range of 1 to 10 µM.

Consider `CC(C)n1nc(COc2ccccc2CC(=O)O)c2cc(-c3cccc4c3OCCC4N)ccc21` (stereo not drawn) [Compound 213c, 2-(2-((5-(4-aminochroman-8-yl)-1-isopropyl-1H-indazol-3-yl)methoxy)phenyl)acetic acid], for which the IC50 is above 10 µM.

Regarding `CC(C)n1nc(COc2ccccc2CC(=O)O)c2cc(-c3ccc4c(c3)C(N)CCO4)ccc21` (stereo not drawn) [Compound 214c, 2-(2-((5-(4-aminochroman-6-yl)-1-isopropyl-1H-indazol-3-yl)methoxy)phenyl)acetic acid], the IC50 is above 10 µM.

For `Nc1nccc2ccc(-c3ccc4c(c3)[C@H](Oc3ccccc3CC(=O)O)CC4)cc12` [Compound 215d, (R)-2-(2-((6-(1-aminoisoquinolin-7-yl)-2,3-dihydro-1H-inden-1-yl)oxy)phenyl)acetic acid], the IC50 was below 1 µM.

On to `Nc1nccc2c(-c3ccc4c(c3)[C@H](Oc3ccccc3CC(=O)O)CC4)cccc12` [Compound 216b, (R)-2-(2-((6-(1-aminoisoquinolin-5-yl)-2,3-dihydro-1H-inden-1-yl)oxy)phenyl)acetic acid], for which the IC50 was below 1 µM.

In the case of `Cn1c(=O)n(Cc2ccccc2CC(=O)O)c2cc(-c3ccc4ccnc(N)c4c3)ccc21` [Compound 217e, 2-(2-((6-(1-aminoisoquinolin-7-yl)-3-methyl-2-oxo-2,3-dihydro-1H-benzo[d]imidazol-1-yl)methyl)phenyl)acetic acid], the IC50 is above 10 µM.

Consider `Cn1c(=O)n(Cc2ccccc2CC(=O)O)c2cc(-c3cccc4c(N)nccc34)ccc21` [Compound 218b, 2-(2-((6-(1-aminoisoquinolin-5-yl)-3-methyl-2-oxo-2,3-dihydro-1H-benzo[d]imidazol-1-yl)methyl)phenyl)acetic acid], for which the IC50 is 1 to 10 µM.

`Cn1c(=O)n(Cc2ccccc2CC(=O)O)c2cc(-c3cccc(C(=N)N)c3)ccc21` [Compound 219c, 2-(2-((6-(3-carbamimidoylphenyl)-3-methyl-2-oxo-2,3-dihydro-1H-benzo[d]imidazol-1-yl)methyl)phenyl)acetic acid]: the IC50 lay within 1 to 10 µM.

Take `Cn1c(=O)n(Cc2ccccc2CC(=O)O)c2cc(-c3cccc(C(N)=O)c3)ccc21` [Compound 219d, 2-(2-((6-(3-carbamoylphenyl)-3-methyl-2-oxo-2,3-dihydro-1H-benzo[d]imidazol-1-yl)methyl)phenyl)acetic acid]: the IC50 lay within 1 to 10 µM.

In the case of `Cc1cc2c(-c3ccc4c(c3)c(COc3ccccc3CC(=O)O)nn4C(C)C)cccc2c(N)n1` [Compound 220d, 2-(2-((5-(1-amino-3-methylisoquinolin-5-yl)-1-isopropyl-1H-indazol-3-yl)methoxy)phenyl)acetic acid], the IC50 is 1 to 10 µM.

Take `Nc1nccc2ccc(-c3ccc4c(c3)[C@@H](Oc3ccccc3CC(=O)O)CC4)cc12` [Compound 221d, (S)-2-(2-((6-(1-aminoisoquinolin-7-yl)-2,3-dihydro-1H-inden-1-yl)oxy)phenyl)acetic acid]: the IC50 is 1 to 10 µM.

`Nc1nccc2c(-c3ccc4c(c3)[C@@H](Oc3ccccc3CC(=O)O)CC4)cccc12` [Compound 222b, (S)-2-(2-((6-(1-aminoisoquinolin-5-yl)-2,3-dihydro-1H-inden-1-yl)oxy)phenyl)acetic acid]: the IC50 fell in the range of 1 to 10 µM.

`Nc1nccc2c(-c3ccc4c(c3)c(COc3ccccc3CC(=O)O)nn4C3CCCC3)cccc12` [Compound 223b, 2-(2-((5-(1-aminoisoquinolin-5-yl)-1-cyclopentyl-1H-indazol-3-yl)methoxy)phenyl)acetic acid]: the IC50 was below 1 µM.

Turning to `N=C(N)c1cccc(-c2ccc3c(c2)c(COc2ccccc2CC(=O)O)nn3C2CCCC2)c1` [Compound 224b, 2-(2-((5-(3-carbamimidoylphenyl)-1-cyclopentyl-1H-indazol-3-yl)methoxy)phenyl)acetic acid], the IC50 was below 1 µM.

On to `Nc1nccc2c(-c3ccc4c(c3)c(COc3ccccc3CC(=O)O)nn4C3CCCCC3)cccc12` [Compound 225b, 2-(2-((5-(1-aminoisoquinolin-5-yl)-1-cyclohexyl-1H-indazol-3-yl)methoxy)phenyl)acetic acid], for which the IC50 was below 1 µM.

For `N=C(N)c1cccc(-c2ccc3c(c2)c(COc2ccccc2CC(=O)O)nn3C2CCCCC2)c1` [Compound 226b, 2-(2-((5-(3-carbamimidoylphenyl)-1-cyclohexyl-1H-indazol-3-yl)methoxy)phenyl)acetic acid], the IC50 was below 1 µM.

Regarding `N=C(N)c1cccc(-c2cc(OCc3ccccn3)c3occ(COc4ccccc4CC(=O)O)c3c2)c1` [Compound 227i, 2-(2-((5-(3-carbamimidoylphenyl)-7-(pyridin-2-ylmethoxy)benzofuran-3-yl)methoxy)phenyl)acetic acid], the IC50 is below 1 µM.

A word on the IC50: it is the point on the concentration scale where inhibition reaches its midpoint.
